Data published in patent US10059674B2, “Design, synthesis, and biological evaluation of 1-methyl-1, 4-dihyrdoindeno[1,2-C]pyrazole analogues as potential anticaner agents targeting tubulin colchicine binding site” (ACT PHARMA CO., LTD., priority 2016, dated 2018).

Assays:
MDCK cells = test: MDCK cell permeability test; conditions: for Efllux ratio: Papp(B→A)/Papp(A→B)
[1] = MDCK cell permeability test; conditions: dog, MDCK, 90 min
in vitro [2] = conditions: rat, microsomes, pH 7.47
[3] = system: human prostate carcinoma (PC3) cells; test: Anti-proliferation test (MTT colorimetry); type: cell-based; conditions: PC-3, PC3, 72 h
Description: (§1) The compound of formula 1 (prepared in embodiment 1), and the compound of formula 2 (prepared in embodiment 2) are given at different concentrations to human hepatocellular carcinoma (HepG2) cells, human prostate carcinoma (PC3) cells, human cervical carcinoma (HeLa) cells, human breast adenocarcinoma (MCF-7) cells, and human leukemia (K562) cells; all the groups are incubated 72 h in an incubator containing 5% of CO2 at 37° C., and then inhabitation ratios of the compounds to the tumor cells are measured by using methyl thiazolyl tetrazolium (MTT) colorimetry, and results are shown in table 1.

[4] = system: human cervical carcinoma (HeLa) cells; test: Anti-proliferation test (MTT colorimetry); type: cell-based; conditions: 72 h
Description: as §1

[5] = system: human leukemia (K562) cells; test: Anti-proliferation test (MTT colorimetry); type: cell-based; conditions: K562, 72 h
Description: as §1

[6] = system: human breast adenocarcinoma (MCF-7) cells; test: Anti-proliferation test (MTT colorimetry); type: cell-based; conditions: MCF7, MCF-7, 72 h
Description: as §1

[7] = system: human hepatocellular carcinoma (HepG2) cells; test: Anti-proliferation test (MTT colorimetry); type: cell-based; conditions: HepG2, 72 h
Description: as §1

in vitro [8] = conditions: human, microsomes, pH 7.47

## CCOc1cccc(Nc2nn(C)c3c2Cc2cc(OCC)c(OCC(N)=O)cc2-3)c1 [LL-01]
MDCK cells; MDCK cells
  PGP substrate judgment: is not the PGP substrate and No
  Permeability Judgment: moderate permeability
MDCK cells; 2nd line of the compound (condition not given)
  Efllux ratio: 1.2
MDCK cells; 3rd line of the compound (condition not given)
  Efllux ratio: 1.1
[1]; Apparent permeability coefficient A→B, 1st line of the compound (condition not given)
  Papp A→B at 90 min: 0.6 ×10⁻⁶ cm/s
[1]; Apparent permeability coefficient A→B, 2nd line of the compound (condition not given)
  Papp A→B at 90 min: 16 ×10⁻⁶ cm/s
[1]; Apparent permeability coefficient A→B, 3rd line of the compound (condition not given)
  Papp A→B at 90 min, 10 µM: 18 ×10⁻⁶ cm/s
[1]; Apparent permeability coefficient B→A, 1st line of the compound (condition not given)
  Papp B→A at 90 min: 0.8 ×10⁻⁶ cm/s
[1]; Apparent permeability coefficient B→A, 2nd line of the compound (condition not given)
  Papp B→A at 90 min: 18.9 ×10⁻⁶ cm/s
[1]; Apparent permeability coefficient B→A, 3rd line of the compound (condition not given)
  Papp B→A at 90 min, 10 µM: 19.6 ×10⁻⁶ cm/s
[1]; Recovery rate A→B, 2nd line of the compound (condition not given)
  recovery at 90 min: 69.4%
[1]; Recovery rate A→B, 3rd line of the compound (condition not given)
  recovery at 90 min, 10 µM: 62.3%
[1]; Recovery rate A→B, 1st line of the compound (condition not given; method: without / with 10 μM cyclosporine A)
  recovery at 90 min: 93.8%
[1]; Recovery rate B→A, 1st line of the compound (condition not given)
  recovery at 90 min: 102%
[1]; Recovery rate B→A, 2nd line of the compound (condition not given)
  recovery at 90 min: 85.4%
[1]; Recovery rate B→A, 3rd line of the compound (condition not given)
  recovery at 90 min, 10 µM: 84.6%
In vitro [2]
  half-life at 1 µM: 56.8 min
  microsomal CLint at 1 µM: 24.4 µL/min/mg
[3]
  IC50: 19 nM
[4]
  IC50: 7.4 nM
[5]
  IC50: 7.15 nM
[6]
  IC50: 3.23 nM
[7]
  IC50: 26 nM
In vitro [8]
  half-life at 1 µM: 44.7 min
  microsomal CLint at 1 µM: 31 µL/min/mg
